Source: patent publication US6737383B1, “Herbicidal oxadiazolidines” (priority 1999, dated 2004)

Key:
blackgrass [1] = assay: Test E blackgrass; assay type: in vivo, Alopecurus myosuroides; conditions: Preemergence
green foxtail = assay: Test E green foxtail; assay type: in vivo, Setaria viridis; conditions: Preemergence
winter wheat [2] = assay: Test E winter wheat; assay type: in vivo, Triticum aestivum; conditions: Preemergence
bedstraw = assay: Test B pre/postemergence bedstraw; assay type: in vivo, Galium aparine
How it was run: (§1)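 Herbicidal effect was estimated by eye on a ten-point control scale after plants spent twelve to sixteen days in a greenhouse following soil or foliar treatment. Foliar sprays targeted plants at one to four leaves; all doses were formulated in a non-phytotoxic solvent with surfactant.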

winter barley = assay: Test E winter barley; assay type: in vivo, Hordeum vulgare; conditions: Preemergence
winter wheat [3] = assay: Test E winter wheat; assay type: in vivo, Triticum aestivum; conditions: Postemergence; for Plant response rating, Wheat (winter): 0 to 100 scale
How it was run: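 Plants were grown under normal greenhouse practice; for postemergence, in sandy loam soil mixed 60:40 with potting mix, treated at the 1- to 4-leaf stage. The compound was in a non-phytotoxic solvent carrying a surfactant. After roughly 21 to 28 days plants were scored visually against untreated plants.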

surinam grass = assay: Test B pre/postemergence surinam grass; assay type: in vivo, Brachiaria decumbens
How it was run: as §1

bamyardgrass = assay: Test B flood test barnyardgrass; assay type: in vivo, Echinochloa crus-galli
How it was run: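 Plants were grown to the 2-leaf stage before treatment with test chemical, then held in a greenhouse for twelve to sixteen days. Injury was visually rated against untreated controls on a 0–10 scale, where 0 is no effect and 10 is complete control.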

wild oat = assay: Test E wild oat; assay type: in vivo, Avena fatua; conditions: Preemergence
Italian ryegrass = assay: Test E Italian ryegrass; assay type: in vivo, Lolium multiflorum; conditions: Preemergence
blackgrass [4] = assay: Test B pre/postemergence blackgrass; assay type: in vivo, Alopecurus myosuroides
How it was run: as §1

[5] = Rate 125 g/ha, 0 to 100 scale (0 no effect, 100 complete control)
[6] = Postemergence, Rate 125 g/ha, scale of 0 to 10 where 0 is no effect and 10 is complete control
[7] = Preemergence, Rate 62 g/ha, scale 0 to 10 (0 no effect, 10 complete control)
[8] = Preemergence, Rate 125 g/ha, 0 is no effect, 10 is complete control
[9] = Preemergence, Rate 250 g/ha, scale 0 to 10, 0 is no effect, 10 is complete control
[10] = Preemergence, Rate 500 g/ha, scale 0 to 10 (0 no effect, 10 complete control)
[11] = Rate 62 g/ha, Postemergence, scale of 0 to 10 where 0 is no effect and 10 is complete control
[12] = Rate 250 g/ha, Postemergence, scale 0 to 10, 0 is no effect, 10 is complete control
[13] = Preemergence, Rate 62 g/ha, scale of 0 to 10 where 0 is no effect and 10 is complete control
[14] = Preemergence, Rate 250 g/ha, scale of 0 to 10 where 0 is no effect and 10 is complete control
[15] = Preemergence, Rate 500 g/ha, scale of 0 to 10 where 0 is no effect and 10 is complete control
[16] = Rate 62 g/ha, Postemergence, scale 0 to 10, 0 no effect, 10 complete control
[17] = Rate 125 g/ha, Postemergence, scale of 0 to 10 where 0 is no effect and 10 is complete control
[18] = Rate 250 g/ha, Postemergence, scale of 0 to 10 where 0 is no effect and 10 is complete control
[19] = Rate 500 g/ha, Postemergence, scale 0 to 10, 0 no effect, 10 complete control

Structure (SMILES): CC(C)N(C(=O)n1oc(=O)n(C)c1=O)c1ccc(Cl)cc1 [Compound 137]
- Plant response rating, Blackgrass (blackgrass [1]; [5]): 20
- Blackgrass plant response rating (0 to 100 scale) (blackgrass [1]; Rate 250 g/ha): 30
- Plant response rating, Green foxtail (green foxtail; [5]): 15
- Green foxtail plant response rating (0 to 100 scale) (green foxtail; Rate 250 g/ha): 50
- Plant response rating, Wheat (winter) (winter wheat [2]; [5]): 20
- Wheat (winter) plant response rating (0 to 100 scale) (winter wheat [2]; Rate 250 g/ha): 30
- Bedstraw plant response rating (bedstraw; [6]): 8
- Bedstraw plant response rating (bedstraw; [7]): 4
- Bedstraw plant response rating (0 to 10 scale) (bedstraw; [8]): 7
- Bedstraw plant response rating (bedstraw; [9]): 7
- Bedstraw plant response rating (bedstraw; [10]): 10
- Bedstraw plant response rating (bedstraw; [11]): 4
- Plant response rating, Bedstraw (bedstraw; [12]): 8
- Plant response rating, Barley (winter) (winter barley; [5]): 20
- Barley (winter) plant response rating (0 to 100 scale) (winter barley; Rate 250 g/ha): 20
- Plant response rating, Wheat (winter) (winter wheat [3]; Rate 125 g/ha): 10
- Wheat (winter) plant response rating (winter wheat [3]; Rate 250 g/ha, 0 to 100 scale where 0 is no effect and 100 is complete control): 20
- B. signalgrass plant response rating (surinam grass; [6]): 4
- B. signalgrass plant response rating (surinam grass; [7]): 3
- B. signalgrass plant response rating (0 to 10 scale) (surinam grass; [8]): 5
- B. signalgrass plant response rating (surinam grass; [9]): 7
- B. signalgrass plant response rating (surinam grass; [10]): 9
- B. signalgrass plant response rating (surinam grass; [11]): 0
- Plant response rating, B. signalgrass (surinam grass; [12]): 5
- B. signalgrass plant response rating (surinam grass; Rate 500 g/ha, Postemergence, scale of 0 to 10 where 0 is no effect and 10 is complete control): 8
- Barnyardgrass plant response rating (bamyardgrass; Postemergence (flood test species), Rate 125 g/ha, scale of 0 to 10 where 0 is no effect and 10 is complete control): 0
- Barnyardgrass plant response rating (bamyardgrass; Rate 31 g/ha, Postemergence section (flood test species), scale 0 to 10): 0
- Barnyardgrass plant response rating (bamyardgrass; Rate 62 g/ha, Postemergence section, flood test species, scale of 0 to 10 where 0 is no effect and 10 is complete control): 0
- Plant response rating, Barnyardgrass (bamyardgrass; Rate 250 g/ha, Postemergence (flood test), scale 0 to 10, 0 is no effect, 10 is complete control): 0
- Plant response rating, Wild oat (wild oat; [5]): 20
- Wild oat plant response rating (0 to 100 scale) (wild oat; Rate 250 g/ha): 10
- Plant response rating, I. Ryegrass (Italian ryegrass; [5]): 20
- I. Ryegrass plant response rating (0 to 100 scale) (Italian ryegrass; Rate 250 g/ha): 50
- Blackgrass plant response rating (blackgrass [4]; [6]): 6
- Blackgrass plant response rating (blackgrass [4]; [7]): 7
- Blackgrass plant response rating (0 to 10 scale) (blackgrass [4]; [8]): 9
- Blackgrass plant response rating (blackgrass [4]; [9]): 9
- Blackgrass plant response rating (blackgrass [4]; [10]): 10
- Blackgrass plant response rating (blackgrass [4]; [11]): 5
- Plant response rating, Blackgrass (blackgrass [4]; [12]): 8
- Blackgrass plant response rating (blackgrass [4]; Rate 500 g/ha, Postemergence, scale 0 to 10): 8

Structure (SMILES): CC(C)N(C(=O)n1oc(=O)n(C2CC2)c1=O)c1ccc(F)cc1F [Compound 299]
- Plant response rating, Blackgrass (blackgrass [1]; [5]): 60
- Plant response rating, Blackgrass (blackgrass [1]; Rate 250 g/ha, 0 to 100 scale): 100
- Plant response rating, Green foxtail (green foxtail; [5]): 100
- Plant response rating, Green foxtail (green foxtail; Rate 250 g/ha, 0 to 100 scale): 100
- Plant response rating, Wheat (winter) (winter wheat [2]; [5]): 50
- Plant response rating, Wheat (winter) (winter wheat [2]; Rate 250 g/ha, 0 to 100 scale): 65
- Bedstraw plant response rating (bedstraw; [13]): 10
- Bedstraw plant response rating (0 to 10 scale) (bedstraw; Preemergence, Rate 125 g/ha): 10
- Bedstraw plant response rating (bedstraw; [14]): 10
- Bedstraw plant response rating (bedstraw; [15]): 10
- Bedstraw plant response rating (bedstraw; [16]): 2
- Bedstraw plant response rating (bedstraw; [17]): 7
- Plant response rating, Barley (winter) (winter barley; [5]): 40
- Plant response rating, Barley (winter) (winter barley; Rate 250 g/ha, 0 to 100 scale, 0 no effect, 100 complete control): 50
- Plant response rating, Wheat (winter) (winter wheat [3]; Rate 125 g/ha, 0 is no effect, 100 is complete control): 60
- Plant response rating, Wheat (winter) (winter wheat [3]; Rate 250 g/ha, 0 is no effect, 100 is complete control): 70
- B. signalgrass plant response rating (surinam grass; [13]): 6
- B. signalgrass plant response rating (0 to 10 scale, 0 is no effect, 10 is complete control) (surinam grass; Preemergence, Rate 125 g/ha): 9
- B. signalgrass plant response rating (surinam grass; [14]): 9
- B. signalgrass plant response rating (surinam grass; [15]): 10
- B. signalgrass plant response rating (surinam grass; [16]): 0
- B. signalgrass plant response rating (surinam grass; [17]): 3
- Plant response rating, B. signalgrass (surinam grass; [18]): 7
- B. signalgrass plant response rating (surinam grass; [19]): 8
- Barnyardgrass plant response rating (bamyardgrass; Rate 62 g/ha, headed Pre-emergence (flood test species), scale 0 to 10 (0 no effect, 10 complete control)): 0
- Barnyardgrass plant response rating (bamyardgrass; Rate 125 g/ha, Pre-emergence, flood test species, scale 0 to 10 where 0 is no effect and 10 is complete control): 2
- Barnyardgrass plant response rating (bamyardgrass; Rate 250 g/ha, Pre-emergence, flood-test species, scale 0 to 10, 0 is no effect, 10 is complete control): 6
- Barnyardgrass plant response rating (bamyardgrass; Rate 500 g/ha, Pre-emergence, flood test species, scale 0 to 10 (0 no effect, 10 complete control)): 9
- Plant response rating, Wild oat (wild oat; [5]): 65
- Plant response rating, Wild oat (wild oat; Rate 250 g/ha, 0 to 100 scale): 70
- Plant response rating, I. Ryegrass (Italian ryegrass; [5]): 70
- Plant response rating, I. Ryegrass (Italian ryegrass; Rate 250 g/ha, 0 to 100 scale): 85
- Blackgrass plant response rating (blackgrass [4]; [13]): 9
- Blackgrass plant response rating (0 to 10 scale) (blackgrass [4]; Preemergence, Rate 125 g/ha): 10
- Blackgrass plant response rating (blackgrass [4]; [14]): 10
- Blackgrass plant response rating (blackgrass [4]; [15]): 10
- Blackgrass plant response rating (blackgrass [4]; [16]): 7
- Blackgrass plant response rating (blackgrass [4]; [17]): 8
- Plant response rating, Blackgrass (blackgrass [4]; [18]): 8
- Blackgrass plant response rating (blackgrass [4]; [19]): 9
